Experimental data published in ChEMBL document CHEMBL4373741, “Direct and straightforward access to substituted alkyl selenols as novel carbonic anhydrase inhibitors” (Eur J Med Chem, 2020).

Tests used:
Carbonic anhydrase 9 = Carbonic anhydrase 9 (Homo sapiens, UniProt Q16790); test: Inhibition of recombinant human CA9 incubated for 15 mins by phenol red dye based stopped flow CO2 hydration assay
Carbonic anhydrase 7 = Carbonic anhydrase 7 (Homo sapiens, UniProt P43166); test: Inhibition of recombinant human CA7 incubated for 15 mins by phenol red dye based stopped flow CO2 hydration assay
Sequence of Carbonic anhydrase 7 (P43166 whole entry): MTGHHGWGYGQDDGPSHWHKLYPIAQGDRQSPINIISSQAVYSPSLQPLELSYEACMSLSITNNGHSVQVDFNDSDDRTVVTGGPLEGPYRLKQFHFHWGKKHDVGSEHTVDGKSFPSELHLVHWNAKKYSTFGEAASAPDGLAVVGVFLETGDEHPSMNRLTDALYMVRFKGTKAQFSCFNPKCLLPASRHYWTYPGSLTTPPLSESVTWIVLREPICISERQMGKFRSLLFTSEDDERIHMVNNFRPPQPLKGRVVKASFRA

Row | SMILES | Ki (Carbonic anhydrase 9) [µM] | Ki (Carbonic anhydrase 7) [µM]
1 | SC(C[SeH])COCc1ccccc1 (stereo not given) | 6.6 | –
2 | COc1ccc(COCC(O)C[SeH])cc1 (stereo not given) | > 100 | > 100
3 | O[C@H](CCl)C[SeH] | > 100 | > 100
4 | Cc1ccc(S(=O)(=O)N[C@H](C[SeH])C(C)C)cc1 | 2.1 | –
5 | CC[C@H](C)[C@@H](C[SeH])NS(=O)(=O)c1ccc(C)cc1 | > 100 | > 100
6 | C=CCOCC(O)C[SeH] (stereo not given) | > 100 | –
7 | C=CCOCC(S)C[SeH] (stereo not given) | 38.6 | > 100
8 | O[C@@H](CCl)C[SeH] | 60 | > 100
9 | OC(C[SeH])COCc1ccccc1 (stereo not given) | 58.7 | –
10 | CC(C)[C@@H](C[SeH])NC(=O)OC(C)(C)C | > 100 | –
